Patent US20050090505A1, “Methods of reducing risk of infection from pathogens” (priority 2003, published 2005)
Structures can show the parent of a compound that is named as a salt.

Biological target: T1, airway epithelial sodium currents (sodium channel) (UniProt A0A8I3MKE6+A0A8I3Q679+Q95165)
T1 sequence (A0A8I3MKE6 1-646): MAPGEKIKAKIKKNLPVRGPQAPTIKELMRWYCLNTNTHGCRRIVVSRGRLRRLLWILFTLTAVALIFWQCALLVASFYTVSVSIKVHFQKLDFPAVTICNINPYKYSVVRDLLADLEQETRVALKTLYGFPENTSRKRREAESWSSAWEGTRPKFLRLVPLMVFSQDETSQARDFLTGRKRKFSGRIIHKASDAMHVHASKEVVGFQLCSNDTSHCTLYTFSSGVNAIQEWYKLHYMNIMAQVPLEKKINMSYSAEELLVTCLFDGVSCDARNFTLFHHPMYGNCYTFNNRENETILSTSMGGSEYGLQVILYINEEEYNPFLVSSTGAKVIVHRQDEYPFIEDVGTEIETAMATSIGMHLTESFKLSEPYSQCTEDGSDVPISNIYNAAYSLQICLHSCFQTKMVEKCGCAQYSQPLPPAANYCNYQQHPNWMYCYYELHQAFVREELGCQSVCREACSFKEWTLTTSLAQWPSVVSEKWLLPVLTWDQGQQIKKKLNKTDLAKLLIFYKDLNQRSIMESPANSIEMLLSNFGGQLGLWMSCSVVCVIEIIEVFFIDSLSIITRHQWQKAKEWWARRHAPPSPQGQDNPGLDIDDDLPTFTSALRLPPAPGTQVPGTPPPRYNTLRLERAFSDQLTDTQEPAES
T1 sequence (A0A8I3Q679 1-649): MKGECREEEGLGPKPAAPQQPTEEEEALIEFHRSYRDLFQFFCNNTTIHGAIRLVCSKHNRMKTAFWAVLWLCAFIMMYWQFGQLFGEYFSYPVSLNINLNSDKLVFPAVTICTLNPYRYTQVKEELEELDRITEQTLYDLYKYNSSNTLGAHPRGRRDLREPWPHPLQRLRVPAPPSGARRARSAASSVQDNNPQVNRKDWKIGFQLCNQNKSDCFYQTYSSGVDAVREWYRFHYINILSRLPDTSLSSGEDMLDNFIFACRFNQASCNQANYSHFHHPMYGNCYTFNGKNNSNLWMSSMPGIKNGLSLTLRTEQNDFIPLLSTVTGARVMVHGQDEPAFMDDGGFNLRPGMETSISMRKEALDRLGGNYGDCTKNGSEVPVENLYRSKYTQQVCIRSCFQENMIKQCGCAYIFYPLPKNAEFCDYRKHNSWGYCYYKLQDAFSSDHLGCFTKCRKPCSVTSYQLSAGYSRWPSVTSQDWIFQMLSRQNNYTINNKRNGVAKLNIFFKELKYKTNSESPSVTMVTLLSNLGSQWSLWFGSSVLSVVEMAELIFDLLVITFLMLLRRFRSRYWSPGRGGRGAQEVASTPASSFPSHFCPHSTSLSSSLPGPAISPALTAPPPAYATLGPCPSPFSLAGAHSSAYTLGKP
T1 sequence (Q95165 1-641): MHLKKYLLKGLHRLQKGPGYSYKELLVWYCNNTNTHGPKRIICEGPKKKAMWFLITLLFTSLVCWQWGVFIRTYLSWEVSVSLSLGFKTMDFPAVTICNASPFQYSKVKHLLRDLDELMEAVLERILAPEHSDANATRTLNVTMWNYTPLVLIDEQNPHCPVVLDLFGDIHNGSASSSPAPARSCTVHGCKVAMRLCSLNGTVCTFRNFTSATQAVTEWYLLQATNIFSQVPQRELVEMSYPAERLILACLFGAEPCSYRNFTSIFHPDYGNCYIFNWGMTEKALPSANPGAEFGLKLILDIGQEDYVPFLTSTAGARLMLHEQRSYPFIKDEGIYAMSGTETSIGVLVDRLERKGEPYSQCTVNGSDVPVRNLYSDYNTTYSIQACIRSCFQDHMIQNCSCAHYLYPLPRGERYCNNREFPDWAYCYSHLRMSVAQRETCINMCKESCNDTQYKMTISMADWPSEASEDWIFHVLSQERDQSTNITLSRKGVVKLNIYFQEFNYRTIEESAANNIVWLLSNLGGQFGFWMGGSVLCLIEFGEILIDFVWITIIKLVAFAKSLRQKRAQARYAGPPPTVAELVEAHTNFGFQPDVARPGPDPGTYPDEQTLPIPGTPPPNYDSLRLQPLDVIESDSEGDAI
Assay: Sodium channel blocking activity: inhibition of short circuit current (ISC) in airway epithelial monolayers mounted in Ussing chambers
Type: cell-based, human, dog, sheep or rodent
Details: Cyclic Pyrazinoylguanidines; relative potency for PSA 4022 = 100 using EC50 from PSA 4022 in same run
Procedure: In Vitro Measure of Sodium Channel Blocking Activity and Reversibility
One assay used to assess mechanism of action and/or potency of the compounds of the present invention involves the determination of lumenal drug inhibition of airway epithelial sodium currents measured under short circuit current (ISC) using airway epithelial monolayers mounted in Ussing chambers. Cells obtained from freshly excised human, dog, sheep or rodent airways are seeded onto porous 0.4 micron Snapwell™ Inserts (CoStar), cultured at air-liquid interface (ALI) conditions in hormonally defined media, and assayed for sodium transport activity (ISC) while bathed in Krebs Bicarbonate Ringer (KBR) in Using chambers. All test drug additions are to the lumenal bath with half-log dose addition protocols (from 1×10^−11 M to 3×10^−5 M), and the cumulative change in ISC (inhibition) recorded. All drugs are prepared in dimethyl sulfoxide as stock solutions at a concentration of 1×10^−2 M and stored at −20° C. Eight preparations are typically run in parallel; two preparations per run incorporate amiloride and/or benzamil as positive controls. After the maximal concentration (5×10^−5 M) is administered, the lumenal bath is exchanged three times with fresh drug-free KBR solution, and the resultant ISC measured after each wash for approximately 5 minutes in duration. Reversibility is defined as the percent return to the baseline value for sodium current after the third wash. All data from the voltage clamps are collected via a computer interface and analyzed off-line.
Dose-effect relationships for all compounds are considered and analyzed by the Prism 3.0 program. IC50 values, maximal effective concentrations, and reversibility are calculated and compared to amiloride and benzamil as positive controls.

SMILES | Fold Amiloride** (PSA 4022 = 100)
Cl.Cl.Cl.N=C(NCCCCC1CCN(CCN)CC1)NC(=O)c1nc(Cl)c(N)nc1N [compound 25455, N-{4-[1-(2-Aminoethyl)piperidin-4-yl]butyl}-N′-(3,5-diamino-6-chloropyrazine-2-carbonyl)guanidine trihydrochloride] | 5 ± 1
N=C(NCCCCC1CCN(CC(O)CO)CC1)NC(=O)c1nc(Cl)c(N)nc1N (centres unmarked) [compound 25456, N-(3,5-Diamino-6-chloropyrazine-2-carbonyl)-N′-{4-[1-(2,3-dihydroxypropyl)-piperidin-4-yl]butyl}guanidine] | 6 ± 2
N=C(NCCCCC1CCN(CCCN)CC1)NC(=O)c1nc(Cl)c(N)nc1N [compound 25510, N-{4-[1-(3-Aminopropyl)piperidin-4-yl]butyl}-N′-(3,5-diamino-6-chloropyrazine-2-carbonyl)guanidine trihydrochloride] | 3 ± 9
CC(C)(C)OC(=O)N=C(NCCCN1CCC(CCCCNC(=N)NC(=O)c2nc(Cl)c(N)nc2N)CC1)NC(=O)OC(C)(C)C [compound 25569, N-(3,5-Diamino-6-chloropyrazine-2-carbonyl)-N′-{4-[1-(3-[N″,N′″-bis-tert-butoxycarbonyl]guanidinopropyl)piperidin-4-yl]butyl}guanidine] | 41 ± 9
Cl.Cl.Cl.N=C(N)NCCCN1CCC(CCCCNC(=N)NC(=O)c2nc(Cl)c(N)nc2N)CC1 [compound 25795, N-(3,5-Diamino-6-chloropyrazine-2-carbonyl)-N′-{4-[1-(3-guanidinopropyl)piperidin-4-yl]butyl}guanidine trihydrochloride] | 18 ± 7

Same assay, conditions: Selected Cyclic Pyrazinoylguanidines (Formula III); mean ± spread

SMILES | EC50 [nM]
N=C(NCCCCC1CCN(CCCN)CC1)NC(=O)c1nc(Cl)c(N)nc1N [compound 25510, N-{4-[1-(3-Aminopropyl)piperidin-4-yl]butyl}-N′-(3,5-diamino-6-chloropyrazine-2-carbonyl)guanidine trihydrochloride] | 61 ± 23

Same assay, conditions: Selected Cyclic Pyrazinoylguanidines (Formula III); mean ± spread; read-out: EC50

SMILES | EC50 [nM]
Cl.Cl.Cl.N=C(NCCCCC1CCN(CCN)CC1)NC(=O)c1nc(Cl)c(N)nc1N [compound 25455, N-{4-[1-(2-Aminoethyl)piperidin-4-yl]butyl}-N′-(3,5-diamino-6-chloropyrazine-2-carbonyl)guanidine trihydrochloride] | 104 ± 32
N=C(NCCCCC1CCN(CC(O)CO)CC1)NC(=O)c1nc(Cl)c(N)nc1N (centres unmarked) [compound 25456, N-(3,5-Diamino-6-chloropyrazine-2-carbonyl)-N′-{4-[1-(2,3-dihydroxypropyl)-piperidin-4-yl]butyl}guanidine] | 106 ± 34
CC(C)(C)OC(=O)N=C(NCCCN1CCC(CCCCNC(=N)NC(=O)c2nc(Cl)c(N)nc2N)CC1)NC(=O)OC(C)(C)C [compound 25569, N-(3,5-Diamino-6-chloropyrazine-2-carbonyl)-N′-{4-[1-(3-[N″,N′″-bis-tert-butoxycarbonyl]guanidinopropyl)piperidin-4-yl]butyl}guanidine] | 16 ± 3

Tested on: not given
Assay: not given
Details: not given

SMILES | melting point
N=C(NCCOCCOCCN)NC(=O)c1nc(Cl)c(N)nc1N | 87 to 90 °C
CC(C)(C)OC(=O)NCCCCCCCCCCNC(=N)NC(=O)c1nc(Cl)c(N)nc1N | 186 to 188 °C
CC(C)(C)OC(=O)N=C(NCCCCCCCCNC(=N)NC(=O)c1nc(Cl)c(N)nc1N)NC(=O)OC(C)(C)C | 208 to 210 °C (dec.)
CC(C)(C)OC(=O)NCCCCCCCCCCCNC(=N)NC(=O)c1nc(Cl)c(N)nc1N | 82 to 84 °C
N=C(NCCCCc1ccc(OCC(=O)NCC(N)=O)cc1)NC(=O)c1nc(Cl)c(N)nc1N (as salt: HCl) [compound 16314, N-carbamoylmethyl-2-(4-{4-[N′-(3,5-diamino-6-chloropyrazine-2-carbonyl)guanidino]butyl}phenoxy)acetamide] | 178 to 180 °C (dec.)
N=C(N)NCCOCCOCCNC(=N)NC(=O)c1nc(Cl)c(N)nc1N (as salt: hydrochloride) | 108 to 112 °C (dec.)
N=C(NCCCOCCCN)NC(=O)c1nc(Cl)c(N)nc1N (as salt: hydrochloride) | 164 to 166 °C (dec.)
N=C(N)NCCCOCCCNC(=N)NC(=O)c1nc(Cl)c(N)nc1N (as salt: hydrochloride) | 72 to 75 °C (dec.)
CN(C)C(=O)COc1ccc(CCCCNC(=N)NC(=O)c2nc(Cl)c(N)nc2N)cc1 (as salt: hydrochloride) [compound 16313, 2-(4-{4-[N-(3,5-diamino-6-chloropyrazine-2-carbonyl)guanidino]-butyl}phenoxy)-N,N-dimethylacetamide hydrochloride] | 130 to 132 °C (dec.)
N=C(NCCCCc1ccc(OCC(=O)Nc2ncc[nH]2)cc1)NC(=O)c1nc(Cl)c(N)nc1N (as salt: hydrochloride) [compound 16437, 2-(4-{4-[N′-(3,5-diamino-6-chloropyrazine-2-carbonyl)guanidino]-butyl}phenoxy)-N-(1H-imidazol-2-yl)acetamide dihydrochloride] | 172 to 174 °C
N=C(NCCCCCCN)NC(=O)c1nc(Cl)c(N)nc1N (as salt: hydrochloride) [compound 18706, N-(6-aminohexyl)-N′-(3,5-diamino-6-chloropyrazine-2-carbonyl)guanidine dihydrochloride] | > 240 °C
N=C(N)NCCCCCCCCCNC(=N)NC(=O)c1nc(Cl)c(N)nc1N (as salt: hydrochloride) [compound 19006, N-{9-[N′-(3,5-diamino-6-chloropyrazine-2-carbonyl)guanidino]nonyl}guanidine dihydrochloride] | 178 to 180 °C
N=C(N)NCCCCCCCNC(=N)NC(=O)c1nc(Cl)c(N)nc1N (as salt: hydrochloride) [compound 19155, N-{7-[N′-(3,5-diamino-6-chloropyrazine-2-carbonyl)guanidino]heptyl}guanidine dihydrochloride] | 140 to 142 °C
N=C(NCCCCCCCCCN)NC(=O)c1nc(Cl)c(N)nc1N (as salt: hydrochloride) [compound 19335, N-(9-aminononyl)-N′-(3,5-diamino-6-chloropyrazine-2-carbonyl)-guanidine dihydrochloride] | 155 to 157 °C (dec.)
N=C(NCCCCCCCCN)NC(=O)c1nc(Cl)c(N)nc1N (as salt: hydrochloride) [compound 19336, N-(8-aminooctyl)-N′-(3,5-diamino-6-chloropyrazine-2-carbonyl)-guanidine dihydrochloride] | 253 to 255 °C
N=C(NCCCCCCCCCCN)NC(=O)c1nc(Cl)c(N)nc1N (as salt: hydrochloride) [compound 19487, N-(10-aminodecyl)-N′-(3,5-diamino-6-chloropyrazine-2-carbonyl)-guanidine dihydrochloride] | 168 to 170 °C
N=C(N)NCCCCCCCCNC(=N)NC(=O)c1nc(Cl)c(N)nc1N (as salt: hydrochloride) [compound 19604, N-{8-[N′-(3,5-diamino-6-chloropyrazine-2-carbonyl)guanidino]octyl}-guanidine dihydrochloride] | 130 to 132 °C
